# Source: BindingDB's records for doi:10.1016/j.bioorg.2015.02.009 (Kyushu Institute of Technology, 2015)
# What was measured:
# Experiment in all cases: HDAC Enzyme Activity Assay
# [1] = biological target: T1, Histone deacetylase 6 (Mus musculus, UniProt Q9Z2V5)
# T1 sequence (Q9Z2V5 whole entry): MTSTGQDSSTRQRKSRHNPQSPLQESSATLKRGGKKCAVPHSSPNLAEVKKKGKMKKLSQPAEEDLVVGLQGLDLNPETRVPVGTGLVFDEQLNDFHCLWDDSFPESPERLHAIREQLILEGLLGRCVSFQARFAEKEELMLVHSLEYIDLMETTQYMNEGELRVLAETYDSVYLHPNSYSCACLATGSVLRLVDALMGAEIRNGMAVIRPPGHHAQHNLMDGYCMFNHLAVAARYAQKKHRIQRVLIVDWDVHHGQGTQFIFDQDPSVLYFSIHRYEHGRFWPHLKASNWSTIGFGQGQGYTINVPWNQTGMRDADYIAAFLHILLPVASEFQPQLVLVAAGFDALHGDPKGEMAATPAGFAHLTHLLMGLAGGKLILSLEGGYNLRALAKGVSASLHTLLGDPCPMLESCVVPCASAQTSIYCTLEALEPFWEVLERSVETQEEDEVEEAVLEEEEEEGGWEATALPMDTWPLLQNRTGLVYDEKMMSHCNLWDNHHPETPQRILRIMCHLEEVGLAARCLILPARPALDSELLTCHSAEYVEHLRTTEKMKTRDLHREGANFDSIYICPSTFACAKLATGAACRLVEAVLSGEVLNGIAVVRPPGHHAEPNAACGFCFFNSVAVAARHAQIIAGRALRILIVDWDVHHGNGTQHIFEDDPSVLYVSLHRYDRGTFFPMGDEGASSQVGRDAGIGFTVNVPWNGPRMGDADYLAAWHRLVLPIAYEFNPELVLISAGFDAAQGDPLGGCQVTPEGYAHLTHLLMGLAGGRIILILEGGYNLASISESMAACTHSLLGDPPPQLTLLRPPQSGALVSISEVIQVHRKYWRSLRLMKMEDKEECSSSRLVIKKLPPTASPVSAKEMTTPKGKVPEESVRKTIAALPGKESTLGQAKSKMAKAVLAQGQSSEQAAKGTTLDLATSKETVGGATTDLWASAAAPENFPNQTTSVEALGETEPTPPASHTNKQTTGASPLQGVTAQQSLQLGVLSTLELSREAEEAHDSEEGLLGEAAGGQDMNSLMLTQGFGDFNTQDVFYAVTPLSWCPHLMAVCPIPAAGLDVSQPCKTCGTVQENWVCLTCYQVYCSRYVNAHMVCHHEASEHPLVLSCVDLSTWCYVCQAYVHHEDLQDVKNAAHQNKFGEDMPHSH
# Experimental: (§1) For the enzyme assay, 10 µL of the enzyme fraction was added to 1 µL of fluorescent substrate (2 mM Ac-KGLGK(Ac)-MCA) and 9 µL of histone deacetylase buffer, and the mixture was incubated at 37 °C for 30 min. The reaction was stopped by the addition of 30 µL of trypsin (20 mg/mL) and incubated at 37 °C for 15 min. The released amino methyl coumarin (AMC) was measured using a fluorescence plate reader. DTT was added simultaneously with drugs to the enzyme solutions
# [2] = biological target: Histone deacetylase 1 (Homo sapiens, UniProt Q13547)
# Histone deacetylase 1, sequence (Q13547 whole entry): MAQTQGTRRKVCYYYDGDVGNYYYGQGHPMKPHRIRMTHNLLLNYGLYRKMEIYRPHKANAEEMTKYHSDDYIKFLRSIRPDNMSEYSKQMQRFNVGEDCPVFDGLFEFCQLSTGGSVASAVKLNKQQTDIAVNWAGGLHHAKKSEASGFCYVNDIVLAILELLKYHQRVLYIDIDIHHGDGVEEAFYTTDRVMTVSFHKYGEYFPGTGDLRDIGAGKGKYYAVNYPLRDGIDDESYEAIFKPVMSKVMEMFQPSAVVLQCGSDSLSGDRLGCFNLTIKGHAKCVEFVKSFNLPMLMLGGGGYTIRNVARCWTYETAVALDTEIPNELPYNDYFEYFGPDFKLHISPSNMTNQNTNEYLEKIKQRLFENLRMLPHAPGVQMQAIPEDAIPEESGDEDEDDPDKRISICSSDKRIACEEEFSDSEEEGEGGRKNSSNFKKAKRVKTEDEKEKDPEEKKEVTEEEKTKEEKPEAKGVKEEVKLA
# Experimental: as §1
# [3] = biological target: Histone deacetylase 4 (Homo sapiens, UniProt P56524)
# Histone deacetylase 4, sequence (P56524 whole entry): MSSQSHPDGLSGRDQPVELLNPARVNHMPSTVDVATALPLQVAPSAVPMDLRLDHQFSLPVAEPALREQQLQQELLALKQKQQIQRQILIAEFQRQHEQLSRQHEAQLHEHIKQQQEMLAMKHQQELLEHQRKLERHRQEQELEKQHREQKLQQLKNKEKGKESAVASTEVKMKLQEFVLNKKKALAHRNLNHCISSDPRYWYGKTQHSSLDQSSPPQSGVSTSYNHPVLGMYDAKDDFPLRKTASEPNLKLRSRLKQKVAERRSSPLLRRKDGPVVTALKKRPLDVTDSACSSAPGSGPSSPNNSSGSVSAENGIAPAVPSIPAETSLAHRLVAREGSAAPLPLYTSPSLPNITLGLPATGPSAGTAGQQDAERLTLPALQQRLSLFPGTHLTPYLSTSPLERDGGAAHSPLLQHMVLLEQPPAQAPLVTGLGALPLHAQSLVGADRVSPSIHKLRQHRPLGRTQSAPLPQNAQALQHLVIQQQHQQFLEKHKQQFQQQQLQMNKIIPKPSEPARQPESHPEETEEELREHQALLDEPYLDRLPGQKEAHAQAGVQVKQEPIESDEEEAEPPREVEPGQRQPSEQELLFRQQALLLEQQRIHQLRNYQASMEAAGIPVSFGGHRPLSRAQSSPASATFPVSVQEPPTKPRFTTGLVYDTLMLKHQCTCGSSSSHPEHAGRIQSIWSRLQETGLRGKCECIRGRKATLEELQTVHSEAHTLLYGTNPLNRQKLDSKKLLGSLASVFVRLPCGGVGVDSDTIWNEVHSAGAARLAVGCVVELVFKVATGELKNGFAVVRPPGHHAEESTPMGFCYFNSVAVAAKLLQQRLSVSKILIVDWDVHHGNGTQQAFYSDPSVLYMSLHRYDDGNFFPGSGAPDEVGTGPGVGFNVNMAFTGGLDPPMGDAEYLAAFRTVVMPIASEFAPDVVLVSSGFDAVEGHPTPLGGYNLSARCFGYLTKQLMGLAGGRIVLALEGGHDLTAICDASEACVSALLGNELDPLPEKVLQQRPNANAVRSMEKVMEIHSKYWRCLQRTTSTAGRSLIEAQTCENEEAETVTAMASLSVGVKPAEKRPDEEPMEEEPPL
# Experimental: as §1
SMILES,IC50 [1] [nM],IC50 [2] [nM],IC50 [3] [nM]
"O=C(CCCCC[C@H](NC(=O)OCc1ccccc1)C(=O)Nc1cccc2cccnc12)NO [(S)-benzyl 8-(hydroxyamino)-1,8-dioxo-1-(quinolin-8-ylamino)octan-2-ylcarbamate]",45,10,11
CC(=O)SCCCCC[C@H](NC(=O)OCc1ccccc1)C(=O)Nc1cccc2cccnc12 [Z-L-Am7(Ac)-QA (1)],34,47,18
COCCOCC(=O)SCCCCC[C@H](NC(=O)OCc1ccccc1)C(=O)Nc1cccc2cccnc12 [Z-L-Am7(AcEtMe)-QA (2)],29,19,18

# The remaining molecules from weak to strong by IC50 [1], led by results:
IC50 [1] [nM],IC50 [2] [nM],IC50 [3] [nM],SMILES
7.5,8.2,3.4,O=C(NC(CCCCCSSCCCCC[C@H](NC(=O)OCc1ccccc1)C(=O)Nc1cccc2cccnc12)C(=O)Nc1cccc2cccnc12)OCc1ccccc1 (stereo partly drawn) [(Z-L-Am7(S-)-QA)2 (4)]
3.2,4.9,2,O=C(N[C@@H](CCCCCSSCCO)C(=O)Nc1cccc2cccnc12)OCc1ccccc1 [Z-L-Am7(betaMe)-QA (3)]
